Assay results published in the NIST ThermoML archive (doi:10.1021/je0255980).
Values joined by “and” are separate entries in the source; they are usually repeats but may differ in a detail not shown here. Equal entries are not always repeated.

Details: Liquid

CCOC(C)(C)CC [1,1-dimethylpropyl ethyl ether]
Details	vapor or sublimation pressure [kPa]
274.2 K	1.413
276.2 K	1.614
278.2 K	1.821
280.2 K	2.055
282.2 K	2.341
284.2 K	2.67
287.2 K	3.214
290.2 K	3.744
293.2 K	4.439
296.2 K	5.272
299.2 K	6.128
302.2 K	7.186

CCCOC(C)(C)CC [1,1-dimethylpropyl propyl ether]
Details	vapor or sublimation pressure [kPa]
274.2 K	0.4002
276.2 K	0.4448
278.1 K	0.5329
280.2 K	0.6121
282.2 K	0.7161
284.2 K	0.7938
285.1 K	0.8034
287.3 K	0.9974
290.3 K	1.199
293.3 K	1.434
296.2 K	1.799
299.2 K	2.072
302.2 K	2.332

CCC(C)(C)OC [2-methoxy-2-methylbutane]
Details	vapor or sublimation pressure [kPa]
274.2 K	2.693
276.2 K	2.998
278.2 K	3.315
280.2 K	3.8
282.8 K	4.422
283.8 K	4.678
287.8 K	5.69
292.9 K	7.603
297.8 K	9.142
302.8 K	12.31
307.8 K	14.55

CCCCOC(C)(C)CC(C)(C)C [butyl 1,1,3,3-tetramethylbutyl ether]
Details	vapor or sublimation pressure [kPa]
278.3 K	0.0128
281.3 K	0.0165
284.3 K	0.0206
287.3 K	0.0269
290.3 K	0.0324
293.3 K	0.0413
296.3 K	0.053
299.2 K	0.0654
302.2 K	0.0797
305.2 K	0.1003
308.2 K	0.1155
311.2 K	0.1474
314.2 K	0.1741

CCCCOC(C)(C)CC [butyl 1,1-dimethylpropyl ether]
Details	vapor or sublimation pressure
274.2 K	0.1111 kPa
276.2 K	0.1278 kPa
278.2 K	0.1602 kPa and 0.1508 kPa
281.3 K	0.1842 kPa
283.2 K	0.2344 kPa and 0.2179 kPa
285.2 K	0.2509 kPa
286.2 K	0.2632 kPa
288.2 K	0.3232 kPa
290.2 K	0.3551 kPa
293.2 K	0.4784 kPa and 0.4372 kPa
296.2 K	0.5522 kPa
298.2 K	0.6658 kPa and 0.6132 kPa
301.2 K	0.7443 kPa
303.2 K	0.901 kPa
304.2 K	0.9012 kPa
308.2 K	1.199 kPa

CCOC(C)(C)CC(C)(C)C [ethyl 1,1,3,3-tetramethylbutyl ether]
Details	vapor or sublimation pressure [kPa]
274.3 K	0.0913
277.2 K	0.1201
280.1 K	0.1414
283.2 K	0.1829
286.1 K	0.2218
289.2 K	0.2772
292.2 K	0.339
295.2 K	0.4146
298.2 K	0.5117
301.2 K	0.6018

CC(C)COC(C)(C)C [isobutyl tert-butyl ether]
Details	vapor or sublimation pressure [kPa]
273.3 K	0.6788
275.4 K	0.7463
276.4 K	0.7981
278.5 K	0.9
278.6 K	0.938
280.4 K	0.9803
282.5 K	1.207
283.5 K	1.362
284.6 K	1.398
287.6 K	1.664
288.4 K	1.769
290.6 K	1.996
293.4 K	2.354
293.6 K	2.439
295.6 K	2.686
298.4 K	3.187
298.7 K	3.146
301.8 K	3.723
303.4 K	4.026
304.8 K	4.451
308.4 K	5.224

COC(C)(C)CC(C)(C)C [methyl 1,1,3,3-tetramethylbutyl ether]
Details	vapor or sublimation pressure [kPa]
276.2 K	0.1656
277.3 K	0.1859
278.3 K	0.1958
280.3 K	0.2383
283.2 K	0.2818
283.3 K	0.2759
286.3 K	0.356
288.1 K	0.3919
289.3 K	0.4126
292.3 K	0.5102
293.3 K	0.5636
295.2 K	0.6069
298 K	0.7478
298.2 K	0.7352
301.2 K	0.8887
303.2 K	1.022
304.2 K	1.07
308 K	1.339

CCCCCCOC(C)(C)CC(C)(C)C [pentane, 2-hexoxy-2,4,4-trimethyl-]
Details	vapor or sublimation pressure [kPa]
295.8 K	0.0053
298.8 K	0.0069
301.9 K	0.0086
304.9 K	0.0111
308 K	0.0141
311 K	0.0162
314.1 K	0.0215
317.1 K	0.0255
320.1 K	0.0321
323.1 K	0.0406
326.2 K	0.0502

CCCCCOC(C)(C)CC(C)(C)C [pentane, 2-pentoxy-2,4,4-trimethyl-]
Details	vapor or sublimation pressure [kPa]
277.5 K	0.0037
279.5 K	0.0044
281.5 K	0.0052
283.5 K	0.0062
285.6 K	0.0073
288.6 K	0.0095
291.6 K	0.0124
294.7 K	0.0155
297.7 K	0.0194
300.7 K	0.0247
303.2 K	0.03

CCCOC(C)(C)CC(C)(C)C [pentane, 2-propoxy-2,4,4-trimethyl-]
Details	vapor or sublimation pressure [kPa]
274.3 K	0.0336
277.3 K	0.0443
278.2 K	0.0491
280.2 K	0.058
283.4 K	0.07
286.2 K	0.0913
289.3 K	0.1179
292.3 K	0.1404
294.4 K	0.1616
296.3 K	0.1858
297.4 K	0.2008
297.8 K	0.2103
298.3 K	0.2196
299.3 K	0.2293
300.3 K	0.2411
301.2 K	0.2557
302.2 K	0.2825
303.2 K	0.2956
304.3 K	0.3231
305.2 K	0.3294
306.2 K	0.3595
307.2 K	0.382
308.2 K	0.3898
